In patent publication US11767310B2, “Nicotinamide RIPK1 inhibitors” (AbbVie Inc., priority 2021, dated 2023):
Read-outs that look alike come from different tables or passages of the source.

Tests used:
Test in all cases: Kinase binding screen
Settings in all cases: read-out: Percent Control at 100 nM Compound Concentration
FYN = FYN (Homo sapiens (Human), UniProt P06241)
[1] = target: RSK2(Kin.Dom.2-C-terminal) (Homo sapiens (Human), UniProt P51812)
NDR2 = NDR2 (Homo sapiens (Human), UniProt Q9Y2H1)
DAPK1 = DAPK1 (Homo sapiens (Human), UniProt P53355)
CSNK1G1 = CSNK1G1 (Homo sapiens (Human), UniProt Q9HCP0)
ICK = ICK (Homo sapiens (Human), UniProt Q9UPZ9)
SRMS = SRMS (Homo sapiens (Human), UniProt Q9H3Y6)
MAP3K1 = MAP3K1 (Homo sapiens (Human), UniProt Q13233)
MAP3K1, sequence (Q13233 whole entry): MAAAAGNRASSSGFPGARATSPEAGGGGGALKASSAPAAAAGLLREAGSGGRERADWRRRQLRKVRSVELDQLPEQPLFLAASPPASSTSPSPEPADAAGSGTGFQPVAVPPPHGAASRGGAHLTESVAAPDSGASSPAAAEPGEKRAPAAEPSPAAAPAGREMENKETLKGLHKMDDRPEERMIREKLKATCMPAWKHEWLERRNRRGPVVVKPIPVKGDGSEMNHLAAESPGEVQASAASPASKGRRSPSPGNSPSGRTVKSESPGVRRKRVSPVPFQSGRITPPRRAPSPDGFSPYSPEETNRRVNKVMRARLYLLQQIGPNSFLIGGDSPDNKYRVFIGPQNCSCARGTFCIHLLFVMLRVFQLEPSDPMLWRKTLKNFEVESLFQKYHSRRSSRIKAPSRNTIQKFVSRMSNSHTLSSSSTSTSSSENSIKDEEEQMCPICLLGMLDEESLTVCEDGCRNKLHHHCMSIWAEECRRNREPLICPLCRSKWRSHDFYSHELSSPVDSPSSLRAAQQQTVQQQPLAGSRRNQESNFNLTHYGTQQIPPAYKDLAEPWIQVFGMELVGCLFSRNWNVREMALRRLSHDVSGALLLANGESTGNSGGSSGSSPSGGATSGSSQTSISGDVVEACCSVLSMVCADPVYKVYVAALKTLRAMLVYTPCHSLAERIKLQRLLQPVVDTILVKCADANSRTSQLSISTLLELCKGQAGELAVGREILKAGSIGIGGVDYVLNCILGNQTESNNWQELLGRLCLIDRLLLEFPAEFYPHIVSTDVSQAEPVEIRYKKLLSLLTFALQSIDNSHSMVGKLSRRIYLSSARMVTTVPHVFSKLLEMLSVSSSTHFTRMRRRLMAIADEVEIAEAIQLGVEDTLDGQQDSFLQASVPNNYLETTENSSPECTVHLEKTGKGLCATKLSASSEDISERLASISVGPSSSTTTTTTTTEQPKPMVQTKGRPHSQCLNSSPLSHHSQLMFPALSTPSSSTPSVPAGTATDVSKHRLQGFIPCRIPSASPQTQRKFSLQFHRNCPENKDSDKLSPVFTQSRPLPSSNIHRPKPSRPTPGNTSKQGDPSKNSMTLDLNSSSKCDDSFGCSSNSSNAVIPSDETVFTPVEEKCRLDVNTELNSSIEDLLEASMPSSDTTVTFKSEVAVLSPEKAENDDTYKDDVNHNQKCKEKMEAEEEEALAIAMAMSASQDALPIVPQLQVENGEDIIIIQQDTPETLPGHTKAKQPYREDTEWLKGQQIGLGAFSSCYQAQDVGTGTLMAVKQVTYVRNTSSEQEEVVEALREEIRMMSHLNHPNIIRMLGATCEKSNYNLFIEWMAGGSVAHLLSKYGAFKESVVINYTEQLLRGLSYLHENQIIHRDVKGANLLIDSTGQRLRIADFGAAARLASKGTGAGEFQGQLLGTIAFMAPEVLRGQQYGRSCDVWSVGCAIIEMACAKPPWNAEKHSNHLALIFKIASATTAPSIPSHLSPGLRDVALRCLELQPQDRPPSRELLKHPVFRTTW

ABL1-phosphorylated = ABL1-phosphorylated (Homo sapiens (Human), UniProt P00519)
MAPKAPK2 = MAPKAPK2 (Homo sapiens (Human), UniProt P49137)
MARK4 = MARK4 (Homo sapiens (Human), UniProt Q96L34)
p38-delta = p38-delta (Homo sapiens (Human), UniProt O15264)
KIT(L576P) = KIT(L576P) (Homo sapiens (Human), UniProt P10721, L576P)
EPHA2 = EPHA2 (Homo sapiens (Human), UniProt P29317)
CSNK1A1 = CSNK1A1 (Homo sapiens (Human), UniProt P48729)
CSNK1A1, sequence (P48729 whole entry): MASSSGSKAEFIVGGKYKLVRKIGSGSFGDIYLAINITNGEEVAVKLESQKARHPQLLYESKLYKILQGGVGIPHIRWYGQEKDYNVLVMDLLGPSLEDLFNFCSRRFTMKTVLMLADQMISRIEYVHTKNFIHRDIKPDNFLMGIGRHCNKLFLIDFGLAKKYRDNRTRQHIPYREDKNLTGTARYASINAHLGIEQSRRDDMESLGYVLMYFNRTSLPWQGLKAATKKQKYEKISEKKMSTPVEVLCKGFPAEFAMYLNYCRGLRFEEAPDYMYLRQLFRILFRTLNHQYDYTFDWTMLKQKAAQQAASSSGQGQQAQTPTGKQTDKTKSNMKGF

ULK3 = ULK3 (Homo sapiens (Human), UniProt Q6PHR2)
ULK3, sequence (Q6PHR2 whole entry): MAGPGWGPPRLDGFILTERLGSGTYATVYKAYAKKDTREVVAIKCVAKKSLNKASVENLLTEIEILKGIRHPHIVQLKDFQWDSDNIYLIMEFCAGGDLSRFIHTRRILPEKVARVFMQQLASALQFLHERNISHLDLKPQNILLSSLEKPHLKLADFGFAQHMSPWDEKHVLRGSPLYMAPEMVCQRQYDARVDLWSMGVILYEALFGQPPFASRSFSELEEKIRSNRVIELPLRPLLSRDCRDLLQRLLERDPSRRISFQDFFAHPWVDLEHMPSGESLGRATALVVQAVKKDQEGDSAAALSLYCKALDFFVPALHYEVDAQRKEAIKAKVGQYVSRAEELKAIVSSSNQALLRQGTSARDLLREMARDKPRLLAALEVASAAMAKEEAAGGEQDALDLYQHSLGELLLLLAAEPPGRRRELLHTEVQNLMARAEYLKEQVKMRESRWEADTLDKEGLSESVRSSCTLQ

MARK2 = MARK2 (Homo sapiens (Human), UniProt Q7KZI7)
MARK2, sequence (Q7KZI7 whole entry): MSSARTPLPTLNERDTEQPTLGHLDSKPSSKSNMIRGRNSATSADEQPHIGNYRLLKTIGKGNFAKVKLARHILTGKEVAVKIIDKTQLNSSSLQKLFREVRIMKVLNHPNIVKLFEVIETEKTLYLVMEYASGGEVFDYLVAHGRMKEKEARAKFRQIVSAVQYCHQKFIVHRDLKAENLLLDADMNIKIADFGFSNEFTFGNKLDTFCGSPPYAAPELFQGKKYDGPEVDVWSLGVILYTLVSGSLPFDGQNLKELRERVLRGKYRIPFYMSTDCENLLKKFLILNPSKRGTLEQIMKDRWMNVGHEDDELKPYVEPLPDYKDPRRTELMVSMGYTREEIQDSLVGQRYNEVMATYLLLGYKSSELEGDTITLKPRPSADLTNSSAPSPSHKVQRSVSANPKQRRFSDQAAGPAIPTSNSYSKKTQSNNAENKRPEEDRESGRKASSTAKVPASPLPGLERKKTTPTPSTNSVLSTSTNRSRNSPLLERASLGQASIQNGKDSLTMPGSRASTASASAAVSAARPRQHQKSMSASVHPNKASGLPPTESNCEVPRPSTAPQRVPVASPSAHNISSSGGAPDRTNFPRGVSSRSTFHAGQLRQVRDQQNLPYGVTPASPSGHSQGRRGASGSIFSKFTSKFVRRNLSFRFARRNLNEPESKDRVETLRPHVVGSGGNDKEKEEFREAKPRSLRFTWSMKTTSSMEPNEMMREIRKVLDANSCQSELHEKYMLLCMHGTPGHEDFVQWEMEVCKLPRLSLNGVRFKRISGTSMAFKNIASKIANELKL

[2] = target: ABL1(Q252H)-nonphosphorylated (Homo sapiens (Human), UniProt P00519, Q252H)
MST1R = MST1R (Homo sapiens (Human), UniProt Q04912)
MST1R, sequence (Q04912 25-1400): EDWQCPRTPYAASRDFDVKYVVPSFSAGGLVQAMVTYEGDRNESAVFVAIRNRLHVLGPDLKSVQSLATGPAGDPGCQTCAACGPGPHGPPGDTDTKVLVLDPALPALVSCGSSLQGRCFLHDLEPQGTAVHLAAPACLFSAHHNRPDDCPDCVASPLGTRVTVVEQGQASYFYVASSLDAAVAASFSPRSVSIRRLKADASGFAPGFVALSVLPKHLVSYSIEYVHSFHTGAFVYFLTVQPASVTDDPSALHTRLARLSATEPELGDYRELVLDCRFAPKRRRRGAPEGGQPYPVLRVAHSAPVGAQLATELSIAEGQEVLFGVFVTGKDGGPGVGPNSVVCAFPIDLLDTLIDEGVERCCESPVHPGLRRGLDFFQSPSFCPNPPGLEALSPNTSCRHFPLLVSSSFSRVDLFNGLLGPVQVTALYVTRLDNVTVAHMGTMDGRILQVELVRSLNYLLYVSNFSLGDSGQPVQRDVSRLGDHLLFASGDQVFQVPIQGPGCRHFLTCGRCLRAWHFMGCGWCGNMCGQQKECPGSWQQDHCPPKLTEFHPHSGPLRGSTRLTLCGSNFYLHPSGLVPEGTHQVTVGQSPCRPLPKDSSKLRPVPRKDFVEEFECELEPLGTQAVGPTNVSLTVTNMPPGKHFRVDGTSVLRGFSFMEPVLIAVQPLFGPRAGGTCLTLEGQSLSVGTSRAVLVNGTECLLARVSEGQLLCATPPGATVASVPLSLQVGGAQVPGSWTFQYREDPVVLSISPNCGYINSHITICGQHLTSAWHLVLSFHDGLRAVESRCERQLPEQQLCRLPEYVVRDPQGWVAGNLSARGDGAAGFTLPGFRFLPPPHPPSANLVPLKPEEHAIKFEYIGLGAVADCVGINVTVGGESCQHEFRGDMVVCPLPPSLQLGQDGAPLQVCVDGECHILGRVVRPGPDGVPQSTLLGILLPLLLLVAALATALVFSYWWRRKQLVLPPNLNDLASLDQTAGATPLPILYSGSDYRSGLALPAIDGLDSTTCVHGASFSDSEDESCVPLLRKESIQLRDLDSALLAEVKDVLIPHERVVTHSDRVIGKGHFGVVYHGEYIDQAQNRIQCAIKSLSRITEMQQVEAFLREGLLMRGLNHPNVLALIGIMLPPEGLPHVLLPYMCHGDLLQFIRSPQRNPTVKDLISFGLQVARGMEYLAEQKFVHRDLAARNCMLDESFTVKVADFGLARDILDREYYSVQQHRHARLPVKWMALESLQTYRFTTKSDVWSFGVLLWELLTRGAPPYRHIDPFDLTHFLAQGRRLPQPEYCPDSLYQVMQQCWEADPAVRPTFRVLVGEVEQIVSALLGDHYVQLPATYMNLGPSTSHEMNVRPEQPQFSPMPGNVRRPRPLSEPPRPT

FLT4 = FLT4 (Homo sapiens (Human), UniProt P35916)
PIP5K1A = PIP5K1A (Homo sapiens (Human), UniProt Q99755)
PIP5K1A, sequence (Q99755 whole entry): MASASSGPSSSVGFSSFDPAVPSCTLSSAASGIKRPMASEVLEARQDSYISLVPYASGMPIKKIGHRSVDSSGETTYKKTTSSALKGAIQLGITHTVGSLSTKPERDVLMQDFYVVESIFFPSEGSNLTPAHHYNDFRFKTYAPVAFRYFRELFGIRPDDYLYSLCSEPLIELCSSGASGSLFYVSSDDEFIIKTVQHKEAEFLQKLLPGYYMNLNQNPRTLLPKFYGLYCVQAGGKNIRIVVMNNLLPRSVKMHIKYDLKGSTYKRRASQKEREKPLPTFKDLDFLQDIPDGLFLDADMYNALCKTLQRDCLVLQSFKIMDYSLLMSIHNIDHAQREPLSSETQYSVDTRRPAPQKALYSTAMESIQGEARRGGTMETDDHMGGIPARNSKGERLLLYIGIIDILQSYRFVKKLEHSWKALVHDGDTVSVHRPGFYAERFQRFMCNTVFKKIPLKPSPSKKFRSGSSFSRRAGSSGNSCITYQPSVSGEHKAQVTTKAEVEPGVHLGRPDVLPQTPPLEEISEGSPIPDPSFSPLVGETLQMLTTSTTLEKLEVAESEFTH

PIK3CA(E542K) = PIK3CA(E542K) (Homo sapiens (Human), UniProt P42336, E542K)
GSK3B = GSK3B (Homo sapiens (Human), UniProt P49841)
PIK3CA(E545K) = PIK3CA(E545K) (Homo sapiens (Human), UniProt P42336, E545K)
MEK6 = MEK6 (Homo sapiens (Human), UniProt P52564)
KIT(V559D,T670I) = KIT(V559D,T670I) (Homo sapiens (Human), UniProt P10721, T670I/V559D)
SBK1 = SBK1 (Homo sapiens (Human), UniProt Q52WX2)
RAF1 = RAF1 (Homo sapiens (Human), UniProt P04049)

Question: Which results are given for CN(C[C@@H](O)Cc1ccccc1)C(=O)c1cncc(C#Cc2cnn(C(F)F)c2)c1 [Example 2, (S)-5-((1-(difluoromethyl)-1H-pyrazol-4-yl)ethynyl)-N-(2-hydroxy-3-phenylpropyl)-N-methylnicotinamide]?
Answer: remaining activity at 0.1 µM (FYN; FYN): 100%; remaining activity at 0.1 µM ([1]; RSK2(Kin.Dom.2-C-terminal)): 100%; remaining activity at 0.1 µM (NDR2; NDR2): 94%; remaining activity at 0.1 µM (DAPK1; DAPK1): 100%; remaining activity at 0.1 µM (CSNK1G1; CSNK1G1): 100%; remaining activity at 0.1 µM (ICK; ICK): 100%; remaining activity at 0.1 µM (SRMS; SRMS): 100%; remaining activity at 0.1 µM (MAP3K1; MAP3K1): 100%; remaining activity at 0.1 µM (ABL1-phosphorylated; ABL1-phosphorylated): 79%; remaining activity at 0.1 µM (MAPKAPK2; MAPKAPK2): 100%; remaining activity at 0.1 µM (MARK4; MARK4): 91%; remaining activity at 0.1 µM (p38-delta; p38-delta): 100%; remaining activity at 0.1 µM (KIT(L576P); KIT(L576P)): 100%; remaining activity at 0.1 µM (EPHA2; EPHA2): 100%; remaining activity at 0.1 µM (CSNK1A1; CSNK1A1): 100%; remaining activity at 0.1 µM (ULK3; ULK3): 97%; remaining activity at 0.1 µM (MARK2; MARK2): 96%; remaining activity at 0.1 µM ([2]; ABL1(Q252H)-nonphosphorylated): 92%; remaining activity at 0.1 µM (MST1R; MST1R): 98%; remaining activity at 0.1 µM (FLT4; FLT4): 100%; remaining activity at 0.1 µM (PIP5K1A; PIP5K1A): 100%; remaining activity at 0.1 µM (PIK3CA(E542K); PIK3CA(E542K)): 89%; remaining activity at 0.1 µM (GSK3B; GSK3B): 100%; remaining activity at 0.1 µM (PIK3CA(E545K); PIK3CA(E545K)): 91%; remaining activity at 0.1 µM (MEK6; MEK6): 100%; remaining activity at 0.1 µM (KIT(V559D,T670I); KIT(V559D,T670I)): 97%; remaining activity at 0.1 µM (SBK1; SBK1): 97%; remaining activity at 0.1 µM (RAF1; RAF1): 100%

Question: What does the source list for CN(C[C@H](Cc1ccccc1)OP(=O)(O)O)C(=O)c1cncc(C#Cc2cnn(C(F)F)c2)c1 [Example 19, (S)-1-(5-((1-(difluoromethyl)-1H-pyrazol-4-yl)ethynyl)-N-methylnicotinamido)-3-phenylpropan-2-yl dihydrogen phosphate]?
Answer: remaining activity at 0.1 µM (FYN): 100%; remaining activity at 0.1 µM [1]: 100%; remaining activity at 0.1 µM (NDR2): 84%; remaining activity at 0.1 µM (DAPK1): 100%; remaining activity at 0.1 µM (CSNK1G1): 100%; remaining activity at 0.1 µM (ICK): 93%; remaining activity at 0.1 µM (SRMS): 96%; remaining activity at 0.1 µM (MAP3K1): 100%; remaining activity at 0.1 µM (ABL1-phosphorylated): 78%; remaining activity at 0.1 µM (MAPKAPK2): 100%; remaining activity at 0.1 µM (MARK4): 94%; remaining activity at 0.1 µM (p38-delta): 100%; remaining activity at 0.1 µM (KIT(L576P)): 98%; remaining activity at 0.1 µM (EPHA2): 100%; remaining activity at 0.1 µM (CSNK1A1): 92%; remaining activity at 0.1 µM (ULK3): 96%; remaining activity at 0.1 µM (MARK2): 100%; remaining activity at 0.1 µM [2]: 100%; remaining activity at 0.1 µM (MST1R): 92%; remaining activity at 0.1 µM (FLT4): 100%; remaining activity at 0.1 µM (PIP5K1A): 92%; remaining activity at 0.1 µM (PIK3CA(E542K)): 81%; remaining activity at 0.1 µM (GSK3B): 98%; remaining activity at 0.1 µM (PIK3CA(E545K)): 85%; remaining activity at 0.1 µM (MEK6): 96%; remaining activity at 0.1 µM (KIT(V559D,T670I)): 100%; remaining activity at 0.1 µM (SBK1): 95%; remaining activity at 0.1 µM (RAF1): 100%
